In patent US20110039812A1, “N-ALKYLCARBONYL-D-AMINO HYDROXYALKYL ESTER COMPOUNDS AND THEIR USE” (priority 2006, published 2011):

Assays:
[1] = system: dorsal surface of the tongue; conditions: average for 6 subjects, after 30 seconds; cited from earlier work
oral cavity = assay: Oral cavity test of tablets placed in the back of the mouth; assay type: in vivo, human
Description: The NACHE were also tested in the oral cavity using these methods: a) placement of 2 mg of the crystalline chemical on the dorsal surface of the tongue, b) incorporation of 2 mg of NACHE into a rapidly-distintegrating tablet of 60 mg weight, and placement of the tablet on the caudal-dorsal surface of the tongue, c) placement of a 0.3 mL aliquot of a 5 mg/mL solution of a NACHE in a 50% ethanol-distilled water solution, and d) delivery of a 5 mg/mL solution of a NACHE in a 50% ethanol-distilled water solution into the oral cavity using a hand-activated mouth spray dispenser. The tests in the oral cavity were important because many cooling agents used in confectionery and comestibles have disagreeable tastes of bitterness, harshness or burning qualities that limit their utility in such items as candy, mints, mouthwashes, mouth fresheners, and cough syrups.
Tablets of CPS-154 were prepared. To weighed samples of about 200 mg of CPS-154 was added varying amounts of Ludipress® (BASF, Germany) to give CPS-154 concentrations of 2.5, 3. 5, 10 and 10% by wt. The two ingredients were then thoroughly mixed in a mortar and pestle. To this mixture when then added 5 to 7 mL of 10% ethanol −90% distilled water solution. Using an eye dropper or a pipette, fixed volumes of the solution was placed on wax paper and dried under a heat source. The tablets were then sized and weighed.
Using the above formulation methods, three doses of 1, 2 and 4 mg per application were examined. […] The onset effect was usually within 30 seconds of application. […] Also, the effects of menthol were short-lived, on the order 8 to 12 minutes, versus a 20 to 30 minute period or longer.

[2] = system: asthmatic coughing attacks; assay: Tablets as needed in a subject with asthma; assay type: in vivo, human
Description: A person with a documented 31-year history of asthma attacks volunteered to test one of the compounds of Formula 1. They were extremely sensitive to agents such as tobacco smoke, dust, pollen, odors, down/woolen materials, house cleansing products, pets, and sudden change of air temperature and reacted with violent coughing, mucus secretions, wheezing, choking, and shortness of breath. At the time of this trial, they were taking these medications for their condition: theophylline, Allegra®, Advair®, Intal®, and Singulair®. They were given 20 tablets of CPS-154, synthesized as described in Example 3, and instructed to take one on an as-needed basis.

cough [3] = assay: Orally-disintegrating tablet in the back of the mouth, anti-tussive action; assay type: in vivo; conditions: 40 to 60 mg Ludipress tablet containing 1 to 5 mg
Description: Especially favored in this invention is the formulation of the NACHE of Formula 1, into an orally-disintegrating tablet.

skin above the upper lip = assay: Cooling sensation bioassay: ointment applied to skin above the upper lip; assay type: in vivo, human
Description: A reliable place for topical application is the skin above the upper lip (above the vermilion border of the lips), on the philtrum, lateral to the philtrum until the nasolabial folds, and on the lower nostrils (subnasale). This part of the face is known to be densely innervated with cold receptors, second only to the surfaces of the eyeball and anogenitalia. A second location is on or below the malar eminence (cheekbone). The skin above the cheekbone is thicker than above the lips, and therefore has a higher threshold for activation. At both loci, tingling, cool and cold sensations in the skin may be experienced and rated for time of onset and intensity.
The intensity of the subjective skin sensation is rated as 0, 1, 2 or 3 with 0 as no change, 1 as slight coolness, cold, or tingling, 2 as clear-cut signal of coolness, cold, or tingling, and 3 as robust cooling or cold. The intervals for recording sensations are 5 to 10 minutes, until two successive zeroes are obtained. The results (shown in FIG. 1) are averaged values of 4 to 6 separate trials in the same individual. The data are plotted using SigmaPlot (Systat Software, Point Richmond Calif.) and a smoothing function with a negative eponential was used for analysis and statistical fit of the results. […]

cough [4] = assay: Powder on the tongue of two cigar smokers with cough; assay type: in vivo, human
Description: Two males, were inveterate cigar smokers consuming 3 to 5 cigars per day. They both had frequent bouts of dry, non-productive, hacking coughs. At night, there were episodes of insomnia characterized by difficulties in breathing, an oppressive pressure on the chest and throat, and subsequent awakening with sensations of choking. During the day, a frequent and persistent sensation was that of tickling, irritative feelings in the back of the throat that led to coughing.
In 10 trials per subject, 2 mg of 92% pure powder of CPS-154 was placed on the mid-portion of the tongue of these two subjects. Both subjects reported relief from the desire to cough within 1 minute after application. Sensations of robust coolness in the back of the throat was noted and lasted for 15 to 20 minutes. Applications of similar amounts of powdered sugar were not effective, but the placebo could be clearly distinguished from the active compound because of the absence of cooling sensations.

viral cough = assay: Tablets as needed in a subject with viral cough; assay type: in vivo, human; conditions: 2.0 mg tablets as needed
Description: A person has severe allergies and also developed a cough after a cruise trip overseas. Upon visit to a physician, they were diagnosed with a “viral cough” and prescribed codeine in a syrup. They volunteered to try CPS-154 tablets and was supplied with 15 tablets stored in a flip top plastic box, each containing 2.0 mg of CPS-154, in a 4% wt/wt lactose matrix (Ludipress®). The subject was instructed to take one tablet on an as-needed basis, with a preferred interval of 3 to 4 hours between tablets.

Compound | Threshold (amount producing cooling sensations on the tongue), average [1] | quality and site of cooling sensations (oral cavity; tablets, 2 or 4 mg dose) | dissolution of tablets in the back of the mouth (oral cavity; Ludipress tablets) | activity in the oral cavity, D-analog versus L-equivalent (oral cavity; tablets) | onset of cooling effect after application (oral cavity; tablets, 2 or 4 mg dose) | recurrence of asthmatic coughing attacks ([2]; continued use of tablets as needed) | side-effects ([2]; one tablet, asthma subject) | anti-tussive action (cough [3]) | duration of action of cooling on the skin of the upper lip (skin above the upper lip; Aquaphor ointment 0.5 and 1% wt/vol, 50 to 80 mg) | potency / cooling activity on the skin of the upper lip (comparison, FIG. 1) (skin above the upper lip; ointment on upper lip skin) | time to relief from the desire to cough (cough [4]; 2 mg of 92% pure powder on mid-portion of the tongue, 2 subjects) | time the desire to cough was removed (cough [4]; after 8 applications, continued smoking of cigars) | effect on cough severity (viral cough)
CC1CCC(C(C)C)C(O)C1 (single isomer, unassigned; (-)) [Menthol, (−)-menthol, reference compound] | 0.25 µg | cooling primarily in the nasopharynx and less in the oral cavity |  |  |  |  |  |  |  |  |  |  | 
CC(C)[C@@H]1CC[C@@H](C)C[C@H]1C(=O)N[C@H](C)C(=O)OCCCO [CPS-154, (R)-2-[((1R,2S,5R)-2-isopropyl-5-methyl-cyclohexanecarbonyl)-amino]-propionic acid 3-hydroxy-propyl ester] |  | pleasant and robust cooling sensations on the tongue, extending down to the back of throat | dissolved within a matter of seconds | clearly more active than the L-equivalent | ≤ 30 s | have not recurred with any severity for six months | did not sense any build up of sputum or other side-effects | robust anti-tussive action for several hours | more than 1 hour | comparable to its alkyl ester analog, CPS-369 | ≤ 1 min | at least 3 days | less severe
